# From US20160220524A1, “COMPOSITIONS OF SMALL MOLECULE THERAPEUTICS” (NEXMED HOLDINGS, INC., priority 2015, published 2016)
# Where a name gives a salt, the structure may show the parent alone.
# Legend:
# [1] = Experimental: The compounds from BCS Class 2, 3 and 4 were each formulated at 5 mg/ml in a liquid carrier of either an aqueous solution of polyethylene glycol 400 (20% PEG 400), or an aqueous solution of DDAIP-HCL (20%). […] Cohorts of three animals per group were placed in the study. On day 1, animals from each group were dosed at 30 mg/kg (6 ml/kg) by oral gavage (PO). Animals were fed at the time of dosing. Serial blood samples were collected at pre-dose, and after post-dose intervals of 30 minutes, 1 hour, 2 hours and 4 hours. The blood samples were collected into lithium heparin-coated tubes. At each time point, 0.15 ml of blood was collected via left jugular vein cannulae and processed for collection of plasma by centrifuging at approximately 2,000 rpm for approximately 10 minutes. The cellular fraction of the blood was discarded. Collection times and volume of plasma samples were recorded and tabulated. Plasma samples were transferred into clean tubes and snap frozen onto dry ice. Samples were stored at −80° C. until ready for bio-analysis by LC/MS/MS. The drug concentration was measured from supernatant after centrifugation of the dosing solution
# [2] = water; cited from earlier work
# P-glycoprotein (P-gp) = P-glycoprotein (P-gp) (Homo sapiens, UniProt P08183); assay: Inhibition of P-glycoprotein; format: in vitro ADME; conditions: up to 10 mM
# Sequence of P-glycoprotein (P-gp) (P08183 whole entry): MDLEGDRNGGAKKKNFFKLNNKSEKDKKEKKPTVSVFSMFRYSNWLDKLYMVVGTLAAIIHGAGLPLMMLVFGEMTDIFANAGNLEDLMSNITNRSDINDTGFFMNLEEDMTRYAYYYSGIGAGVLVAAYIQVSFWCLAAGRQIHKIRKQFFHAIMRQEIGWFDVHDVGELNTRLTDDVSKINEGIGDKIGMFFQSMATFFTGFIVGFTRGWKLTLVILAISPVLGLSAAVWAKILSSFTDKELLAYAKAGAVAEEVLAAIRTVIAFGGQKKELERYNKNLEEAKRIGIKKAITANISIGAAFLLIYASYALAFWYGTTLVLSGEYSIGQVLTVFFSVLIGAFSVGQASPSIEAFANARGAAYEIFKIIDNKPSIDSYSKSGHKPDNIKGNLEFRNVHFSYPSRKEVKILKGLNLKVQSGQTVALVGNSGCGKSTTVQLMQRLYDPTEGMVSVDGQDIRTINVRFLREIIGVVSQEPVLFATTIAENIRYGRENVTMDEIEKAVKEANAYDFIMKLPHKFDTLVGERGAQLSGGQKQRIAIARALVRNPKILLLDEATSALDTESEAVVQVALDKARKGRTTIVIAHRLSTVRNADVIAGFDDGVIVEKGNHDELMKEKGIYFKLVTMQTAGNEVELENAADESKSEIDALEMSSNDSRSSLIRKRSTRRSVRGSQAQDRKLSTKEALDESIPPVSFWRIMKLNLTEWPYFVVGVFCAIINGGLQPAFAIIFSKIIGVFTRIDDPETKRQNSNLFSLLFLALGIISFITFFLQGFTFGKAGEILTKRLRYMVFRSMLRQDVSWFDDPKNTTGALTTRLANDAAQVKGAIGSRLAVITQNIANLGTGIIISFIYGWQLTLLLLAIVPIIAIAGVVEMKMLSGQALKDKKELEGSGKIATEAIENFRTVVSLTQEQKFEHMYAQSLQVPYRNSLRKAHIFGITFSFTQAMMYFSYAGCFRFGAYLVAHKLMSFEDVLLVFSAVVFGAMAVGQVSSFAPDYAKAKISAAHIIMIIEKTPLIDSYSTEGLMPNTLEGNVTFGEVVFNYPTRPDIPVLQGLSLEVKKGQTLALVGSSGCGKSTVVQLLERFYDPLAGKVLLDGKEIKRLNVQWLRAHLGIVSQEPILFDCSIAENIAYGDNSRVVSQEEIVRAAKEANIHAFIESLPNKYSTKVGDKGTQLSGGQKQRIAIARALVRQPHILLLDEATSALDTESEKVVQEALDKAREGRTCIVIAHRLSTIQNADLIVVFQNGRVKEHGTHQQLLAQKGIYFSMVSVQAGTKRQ
SMILES,Sol. over PEG (solubility improvement fold over PEG 400) [1] [fold],Sol. H2O (reported solubility from the literature) [2] [mg/mL],inhibition of P-glycoprotein (P-gp) (P-glycoprotein (P-gp)),form of the 5 mg/ml formulation (suspension or solution) [1]
"NS(=O)(=O)c1cc2c(cc1Cl)N=CNS2(=O)=O [Chlorothiazide, chlorothiazide]",>363,0.300,,
"CCCCCCCCCCCCOC(=O)C(C)N(C)C (stereo not drawn) [DDAIP-HCL, dodecyl 2-(N,N-dimethylamino) propionate]",,,no inhibition,
"N[C@H]1C(O)O[C@H](CO)[C@@H](O)[C@@H]1O (stereo partly drawn) [Glucosamine, glucosamine]",,551.000,,
"O=C(CCCN1CCC(O)(c2ccc(Cl)cc2)CC1)c1ccc(F)cc1 [Haloperidol, haloperidol]",,0.001,,suspensions
"O=C(O)c1cc(/N=N/c2ccc(S(=O)(=O)Nc3ccccn3)cc2)ccc1O [Sulfasalazine, sulfasalazine]",>446,0.010,,suspensions
